A short description of data set [1]: Tasting in sweet/salty solution (flavour profile by testers). It counts as in vivo. The settings on record: 1 ppm in aqueous 5% sucrose or 0.5% sodium chloride solution, 9 testers; for flavour profile: fatty (oily): scale 1 (action scarcely perceptible) to 9 (action highly perceptible). The method, then:
The 2,5-diacetyl-3a,5,6,6a-tetrahydro-6a-hydroxy-2,3a,5-trimethylfuro[2,3-d]-1,3-dioxole from Example 1 (1 ppm diacetyl trimer in aqueous 5 wt. % sucrose or 0.5% sodium chloride solution) was investigated for its flavouring action by 9 testers. The actions found were evaluated with a scale of from 1 (action scarcely perceptible) to 9 (action highly perceptible).
For comparison, a flavour profile of diacetyl (1 ppm in aq. 5% sucrose or 0.5% sodium chloride solution) was produced under otherwise identical conditions: fatty (oily) (5), cream (5), butter (7), milk (4), condensed milk (4), fruity (2), cheesy (2), sweet (4), vanillin (2), intensity (7), impact (7), fullness (7), adhesive (5), soft (6)

A short description of data set [2]: Stability of diacetyl trimer on heating. In kind it is physicochemical. The following applies: heated at 60° C. to 100° C. for 10 minutes.

These results are taken from US8318711B2, “Use of diacetyl trimer as an aromatic and flavouring substance” (Symrise AG, priority 2004, dated 2012).

For the compound `CC(=O)C1(C)CC2(O)OC(C)(C(C)=O)OC2(C)O1` (racemic) [diacetyl trimer, 2,5-diacetyl-3a,5,6,6a-tetrahydro-6a-hydroxy-2,3a,5-trimethylfuro[2,3-d]-1,3-dioxole], the “flavour profile: fatty (oily)” value in data set [1] is listed as 7. Besides, in data set [1] (scale 1 to 9), the “flavour profile: adhesive” value was 8, the “flavour profile: butter” value is listed as 8, the “flavour profile: caramel” value is on record as 4 and the “flavour profile: cream” value worked out at 6. In data set [1] (scale 1 to 9), the “flavour profile: fresh cheese/quark” value is 4, the “flavour profile: fullness” value was 7, the “flavour profile: impact” value is reported as 7 and the “flavour profile: intensity” value came to 6. In data set [1] (scale 1 to 9), the “flavour profile: soft” value came out at 6, the “flavour profile: sweet” value is given as 6, the “flavour profile: toffee” value is given as 6 and the “flavour profile: vanillin” value is listed as 3. Also, the decomposition on heating result in data set [2] is “does not decompose”.
Take `CC(=O)C(C)=O` [diacetyl, 2,3-butanedione]: the “flavour profile: fatty (oily)” value in data set [1] came to 5. Further, in data set [1] (scale 1 to 9), the “flavour profile: adhesive” value was 5, the “flavour profile: butter” value was 7, the “flavour profile: cheesy” value is given as 2 and the “flavour profile: condensed milk” value is 4. In addition, in data set [1] (scale 1 to 9), the “flavour profile: cream” value amounted to 5, the “flavour profile: fruity” value was determined as 2, the “flavour profile: fullness” value was 7 and the “flavour profile: impact” value was found to be 7. In addition, in data set [1] (scale 1 to 9), the “flavour profile: intensity” value worked out at 7, the “flavour profile: milk” value was 4, the “flavour profile: soft” value turned out to be 6 and the “flavour profile: sweet” value is 4. In addition, in data set [1] (scale 1 to 9), the “flavour profile: vanillin” value is on record as 2.
